Test results as given in patent US7153870B2, “Nicotinamide derivatives useful as PDE4 inhibitors” (Pfizer Inc., priority 2003, dated 2006).

System: TNFα release from human peripheral blood mononuclear cells
Experiment: Inhibition of LPS-stimulated TNFα release from human peripheral blood mononuclear cells (TNFα screen)
Format: cell-based
Conditions: LPS-stimulated human PBMC, 18 hours incubation, TNFα in supernatant by ELISA
Description: Venous blood is collected from healthy volunteers and the mononuclear cells purified by centrifugation through Histopaque (Ficoll) cushions. TNFα production from these cells is stimulated by addition of lipopolysaccharide. After 18 hours incubation in the presence of LPS, the cell supernatant is removed and the concentration of TNFα in the supernatant determined by ELISA. Addition of PDE4 inhibitors reduces the amount of TNFα produced. An IC50 is determined which is equal to the concentration of compound that gives 50% inhibition of TNFα production as compared to the LPS stimulated control wells.

Row | Compound | IC50
1 | CSc1cccc(Oc2ncc(F)cc2C(=O)N[C@H]2CC[C@@H](NC(=O)c3cc4ccccn4n3)CC2)c1 [Example 1, Syn-Pyrazolo[1,5-a]pyridine-2-carboxylic acid(4-{[5-fluoro-2-(3-methylsulfanyl-phenoxy) -pyridine-3-carbonyl]-amino}-cyclohexyl)-amide] | 0.1 nM
2 | CSc1cccc(Oc2ncc(F)cc2C(=O)N[C@H]2CC[C@@H](NC(=O)c3cccn4ccnc34)CC2)c1 [Example 6, Syn-Imidazo[1,2-a]pyridine-8-carboxylic acid(4-{[5-fluoro-2-(3-methylsulfanyl-phenoxy) -pyridine-3-carbonyl]-amino}-cyclohexyl)-amide] | 0.02 nM
3 | CSc1cccc(Oc2ncc(F)cc2C(=O)N[C@H]2CC[C@@H](NC(=O)c3cccc4nn[nH]c34)CC2)c1 [Example 7, Syn-3H-Benzotriazole-4-carboxylic acid(4-{[5-fluoro-2-(3-methylsulfanyl-Phenoxy) -pyridine-3-carbonyl]-amino}-cyclohexyl)-amide] | 0.4 nM
4 | CSc1cccc(Oc2ncc(F)cc2C(=O)N[C@H]2CC[C@@H](NC(=O)c3cccc4cccnc34)CC2)c1 [Example 8, Syn-Quinoline-8-carboxylic acid(4-{[5-fluoro-2-(3-methylsulfanyl-phenoxy) -pyridine-3-carbonyl]-amino}-cyclohexyl)-amide] | 0.25 nM
5 | CSc1cccc(Oc2ncc(F)cc2C(=O)N[C@H]2CC[C@@H](NC(=O)c3cccc4cc(O)cnc34)CC2)c1 [Example 9, Syn-3-Hydroxy-quinoline-8-carboxylic acid(4-{[5-fluoro-2-(3-methylsulfanyl-phenoxy) -pyridine-3-carbonyl]-amino}-cyclohexyl)-amide] | 0.15 nM
6 | CSc1cccc(Oc2ncc(F)cc2C(=O)N[C@H]2CC[C@@H](NC(=O)c3nn(CCO)c4ccccc34)CC2)c1 [Example 10, Syn-1-(2-Hydroxy-ethyl)-1H-indazole-3-carboxylic acid(4-{[5-fluoro-2-(3-methylsulfanyl-phenoxy)-pyridine-3-carbonyl]-amino}-cyclohexyl)-amide] | 0.3 nM
7 | Syn-1-Isopropyl-1H-benzoimidazole-4-carboxylic acid(4-{[5-fluoro-2-(3-methylsulfanyl-phenoxy)-pyridine-3-carbonyl]-amino}-cyclohexyl)-amide [Example 2] | 1 nM
8 | Syn-1H-Indazole-3-carboxylic acid(4-{[5-fluoro-2-(3-methylsulfanyl-phenoxy) -pyridine-3-carbonyl]-amino}-cyclohexyl)-amide [Example 4] | 2 nM
9 | Syn-2-Methyl-3H-benzoimidazole-4-carboxylic acid(4-{[5-fluoro-2-(3-methylsulfanyl-phenoxy)-pyridine-3-carbonyl]-amino}-cyclohexyl)-amide [Example 5] | 0.04 nM
10 | Syn-Imidazo[1,2-a]pyridine-2-carboxylic acid(4-{[5-fluoro-2-(3-methylsulfanyl -phenoxy)-pyridine-3-carbonyl]-amino}-cyclohexyl)-amide [Example 3] | 0.1 nM
